Results as given in paper PMC5023172, “Preclinical Activity of ARQ 087, a Novel Inhibitor Targeting FGFR Dysregulation” (PLoS ONE, 2016).

Tested on: Ba/F3-INSR xenograft
Test: Xenograft tumor growth inhibition
Type: in vivo, mice
Excerpt: Six week old female NCr nu/nu mice (for SNU-16) or CB-17 SCID female mice (for NCI-H716 and BaF3 models) were purchased from Taconic Farms (Germantown, NY) and allowed to acclimate for greater than 2 weeks. Mice were housed in sterile micro isolator cages with 5 mice per cage and were received food and water ad libitum. Tumor cells were suspended in 50% Matrigel (lot# A9618-BD, Bioscience) and sterile Hanks Balanced Salt Solution (HBSS) for the NCI-H716 model or in HBSS alone for SNU-16. Each mouse was implanted subcutaneously with 5x10^6 cells (SNU-16) or 8x10^6 cells (NCI-H716) or 2x10^6 cells (BaF3) to the upper right flank area. Tumor measurements and body weights were collected two to three times per week with electronic calipers and balance. Tumor weight (mg) was calculated from the equation: length x (width)^2/2. This formula was used to calculate tumor volume assuming unit density 1 mg = 1 mm^3. Treatment was initiated when tumor burden was between 100–200 mgs. Percent inhibition or tumor growth inhibition (TGI) was calculated using the following formula: 100-[mean tumor value of treated / mean tumor value of control] x 100.
Plasma and tumor samples were collected 4 hours post single dose. […] Dosing volume for all groups was 10 mL/kg or 0.1 mL/10 g body weight.

SMILES: CC[C@]1(O)C[C@@H]2CN(CCc3c([nH]c4ccccc34)[C@@](C(=O)OC)(c3cc4c(cc3OC)N(C)[C@H]3[C@@](O)(C(=O)OC)[C@H](OC(C)=O)[C@]5(CC)C=CCN6CC[C@]43[C@@H]65)C2)C1 [Vinblastine]
- T/C (10 mg/kg IV Q5Dx2, Day 10): 100.48
- Tumor Weights (mg), MEAN (10 mg/kg IV Q5Dx2, Day 10): 230.70 mg
- T/C (10 mg/kg IV Q5Dx2, Day 13): 42.10
- Tumor Weights (mg), MEAN (10 mg/kg IV Q5Dx2, Day 13): 256.70 mg
- T/C (10 mg/kg IV Q5Dx2, Day 15): 37.24
- Tumor Weights (mg), MEAN (10 mg/kg IV Q5Dx2, Day 15): 325.90 mg
- T/C (10 mg/kg IV Q5Dx2, Day 17): 11.60
- Tumor Weights (mg), MEAN (10 mg/kg IV Q5Dx2, Day 17): 196.60 mg
- T/C (10 mg/kg IV Q5Dx2, Day 20): 2.84
- Tumor Weights (mg), MEAN (10 mg/kg IV Q5Dx2, Day 20): 69.22 mg
